PubChem BioAssay (NCI)
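Briefly, cells in 96-well plates were exposed to five compound concentrations for 48 h, and endpoints were estimated by linear interpolation. Abbreviation: GI50, concentration required for 50% inhibition of growth. TGI: total growth inhibition.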

Columns and labels:
Test in all cases: DTP human tumour cell line panel, 48 h
[1] = tested on: A498 renal
[2] = tested on: A549 NSCLC
[3] = tested on: ACHN renal
[4] = tested on: CAKI-1 renal
[5] = tested on: CCRF-CEM leukemia
[6] = tested on: COLO 205 colon
[7] = tested on: DLD-1 colon
[8] = tested on: DMS 273 small cell lung
[9] = tested on: EKVX NSCLC
[10] = tested on: HCC-2998 colon
[11] = tested on: HCT-116 colon
[12] = tested on: HCT-15 colon
[13] = tested on: HL-60(TB) leukemia
[14] = tested on: HOP-62 NSCLC
[15] = tested on: HOP-92 NSCLC
[16] = tested on: HT29 colon
[17] = tested on: IGROV1 ovarian
[18] = tested on: K-562 leukemia
[19] = tested on: KM12 colon
[20] = tested on: KM20L2 colon
[21] = tested on: LOX IMVI melanoma
[22] = tested on: LXFL 529 NSCLC
[23] = tested on: M14 melanoma
[24] = tested on: M19-MEL melanoma
[25] = tested on: MOLT-4 leukemia
[26] = tested on: NCI-H226 lung
[27] = tested on: NCI-H23 lung
[28] = tested on: NCI-H460 lung
[29] = tested on: NCI-H522 lung
[30] = tested on: OVCAR-4 ovarian
[31] = tested on: OVCAR-5 ovarian
[32] = tested on: OVCAR-8 ovarian
[33] = tested on: RPMI-8226 leukemia
[34] = tested on: RXF 393 renal
[35] = tested on: SF-268 CNS
[36] = tested on: SF-295 CNS
[37] = tested on: SF-539 CNS
[38] = tested on: SK-MEL-2 melanoma
[39] = tested on: SK-MEL-28 melanoma
[40] = tested on: SK-MEL-5 melanoma
[41] = tested on: SK-OV-3 ovarian
[42] = tested on: SN12C renal
[43] = tested on: SNB-19 CNS
[44] = tested on: SNB-75 CNS
[45] = tested on: SNB-78 CNS
[46] = tested on: SR leukemia
[47] = tested on: SW-620 colon
[48] = tested on: TK-10 renal
[49] = tested on: U251 CNS
[50] = tested on: UACC-257 melanoma
[51] = tested on: UACC-62 melanoma
[52] = tested on: UO-31 renal
[53] = tested on: XF 498 CNS
[54] = tested on: 786-0 renal
[55] = tested on: MALME-3M melanoma
[56] = tested on: OVCAR-3 ovarian
[57] = tested on: DMS 114 small cell lung
[58] = tested on: DU-145 prostate
[59] = tested on: HOP-18 NSCLC
[60] = tested on: HS 578T breast
[61] = tested on: MCF7 breast
[62] = tested on: MDA-MB-231 breast
[63] = tested on: MDA-MB-435
[64] = tested on: MDA-N
[65] = tested on: NCI/ADR-RES ovarian
[66] = tested on: PC-3 prostate
[67] = tested on: T-47D breast

For Brc1ccc(C2CC(c3cccc4ccccc34)=Nc3ccccc3S2)cc1 (configuration not stated), the TGI [1] was > 100 µM, the TGI [2] was > 100 µM and the TGI [3] was > 100 µM. For the same compound, the TGI [4] was > 100 µM, the TGI [5] was 81.6 µM and the TGI [6] was > 100 µM. For the same compound, the TGI [7] was > 100 µM, the TGI [8] was > 100 µM and the TGI [9] was > 100 µM. The TGI [10] was > 100 µM, the TGI [11] was > 100 µM and the TGI [12] was > 100 µM. For the same compound, the TGI [13] was > 100 µM, the TGI [14] was > 100 µM and the TGI [15] was > 100 µM. For the same compound, the TGI [16] was > 100 µM, the TGI [17] was > 100 µM and the TGI [18] was > 100 µM. For the same compound, the TGI [19] was > 100 µM, the TGI [20] was > 100 µM and the TGI [21] was > 100 µM. The TGI [22] was > 100 µM, the TGI [23] was > 100 µM and the TGI [24] was > 100 µM. For the same compound, the TGI [25] was > 100 µM, the TGI [26] was > 100 µM and the TGI [27] was > 100 µM. The TGI [28] was > 100 µM, the TGI [29] was > 100 µM and the TGI [30] was > 100 µM. The TGI [31] was > 100 µM, the TGI [32] was > 100 µM and the TGI [33] was 51.6 µM. The TGI [34] was > 100 µM, the TGI [35] was > 100 µM and the TGI [36] was > 100 µM. For the same compound, the TGI [37] was > 100 µM, the TGI [38] was > 100 µM and the TGI [39] was > 100 µM. The TGI [40] was > 100 µM, the TGI [41] was > 100 µM and the TGI [42] was > 100 µM. The TGI [43] was > 100 µM, the TGI [44] was > 100 µM and the TGI [45] was > 100 µM. For the same compound, the TGI [46] was > 100 µM, the TGI [47] was 34 µM and the TGI [48] was > 100 µM. For the same compound, the TGI [49] was > 100 µM, the TGI [50] was > 100 µM and the TGI [51] was > 100 µM. The TGI [52] was > 100 µM and the TGI [53] was > 100 µM.
In the case of N.N.N.N.[Co+3].[N-]=[N+]=[N-].[N-]=[N+]=[N-].[N-]=[N+]=[N-], the GI50 [54] is reported as > 100 µM, the TGI [54] is reported as > 100 µM and the GI50 [1] is reported as > 100 µM. For the same compound, the TGI [1] was > 100 µM, the GI50 [2] was > 100 µM and the TGI [2] was > 100 µM. The GI50 [3] was 52 µM, the TGI [3] was > 100 µM and the GI50 [5] was 61.1 µM. The TGI [5] was > 100 µM, the GI50 [6] was > 100 µM and the TGI [6] was > 100 µM. The GI50 [7] was > 100 µM, the TGI [7] was > 100 µM and the GI50 [8] was > 100 µM. For the same compound, the TGI [8] was > 100 µM, the GI50 [9] was > 100 µM and the TGI [9] was > 100 µM. For the same compound, the GI50 [10] was > 100 µM, the TGI [10] was > 100 µM and the GI50 [11] was 85.5 µM. For the same compound, the TGI [11] was > 100 µM, the GI50 [12] was > 100 µM and the TGI [12] was > 100 µM. The GI50 [13] was 61.5 µM, the TGI [13] was > 100 µM and the GI50 [14] was > 100 µM. The TGI [14] was > 100 µM, the GI50 [15] was 19 µM and the TGI [15] was > 100 µM. The GI50 [16] was > 100 µM, the TGI [16] was > 100 µM and the GI50 [17] was > 100 µM. For the same compound, the TGI [17] was > 100 µM, the GI50 [18] was > 100 µM and the TGI [18] was > 100 µM. The GI50 [19] was > 100 µM, the TGI [19] was > 100 µM and the GI50 [20] was > 100 µM. For the same compound, the TGI [20] was > 100 µM, the GI50 [21] was > 100 µM and the TGI [21] was > 100 µM. For the same compound, the GI50 [22] was > 100 µM, the TGI [22] was > 100 µM and the GI50 [23] was > 100 µM. For the same compound, the TGI [23] was > 100 µM, the GI50 [55] was 78.1 µM and the TGI [55] was > 100 µM. For the same compound, the GI50 [25] was 36 µM, the TGI [25] was > 100 µM and the GI50 [27] was > 100 µM. The TGI [27] was > 100 µM, the GI50 [28] was > 100 µM and the TGI [28] was > 100 µM. For the same compound, the GI50 [29] was 39.7 µM, the TGI [29] was > 100 µM and the GI50 [56] was > 100 µM. For the same compound, the TGI [56] was > 100 µM, the GI50 [30] was > 100 µM and the TGI [30] was > 100 µM. For the same compound, the GI50 [31] was > 100 µM, the TGI [31] was > 100 µM and the GI50 [32] was > 100 µM. For the same compound, the TGI [32] was > 100 µM, the GI50 [33] was > 100 µM and the TGI [33] was > 100 µM. For the same compound, the GI50 [35] was 47.4 µM, the TGI [35] was > 100 µM and the GI50 [36] was > 100 µM. For the same compound, the TGI [36] was > 100 µM, the GI50 [37] was 26.6 µM and the TGI [37] was > 100 µM. For the same compound, the GI50 [38] was > 100 µM, the TGI [38] was > 100 µM and the GI50 [39] was 47.1 µM. For the same compound, the TGI [39] was > 100 µM, the GI50 [40] was > 100 µM and the TGI [40] was > 100 µM. For the same compound, the GI50 [41] was > 100 µM, the TGI [41] was > 100 µM and the GI50 [42] was > 100 µM. The TGI [42] was > 100 µM, the GI50 [43] was > 100 µM and the TGI [43] was > 100 µM. The GI50 [44] was > 100 µM, the TGI [44] was > 100 µM and the GI50 [45] was > 100 µM. For the same compound, the TGI [45] was > 100 µM, the GI50 [47] was > 100 µM and the TGI [47] was > 100 µM. The GI50 [48] was > 100 µM, the TGI [48] was > 100 µM and the GI50 [49] was > 100 µM. For the same compound, the TGI [49] was > 100 µM, the GI50 [50] was > 100 µM and the TGI [50] was > 100 µM. For the same compound, the GI50 [51] was 85.2 µM, the TGI [51] was > 100 µM and the GI50 [52] was 29.2 µM. For the same compound, the TGI [52] was > 100 µM.
Compound N#CC1(C#N)C2(c3ccccc3)OC(c3ccccc3)(c3cc4ccccc4cc32)C1(C#N)C#N has a TGI [54] of 21.3 µM, a TGI [1] of 35.1 µM and a TGI [2] of 33.9 µM. The TGI [3] was 28.5 µM, the TGI [4] was 24.1 µM and the TGI [5] was 3.29 µM. The TGI [6] was 18.1 µM, the TGI [7] was 22.3 µM and the TGI [57] was 22.2 µM. The TGI [8] was 32 µM, the TGI [58] was 28.5 µM and the TGI [9] was 32.1 µM. The TGI [10] was 33.8 µM, the TGI [11] was 20 µM and the TGI [12] was 26.7 µM. It also gave a TGI [13] of 7.05 µM, a TGI [59] of 17.8 µM and a TGI [14] of 36.4 µM. The TGI [15] was 7.05 µM, the TGI [60] was 72.2 µM and the TGI [16] was 29.3 µM. It also gave a TGI [17] of 31.2 µM, a TGI [18] of 8.18 µM and a TGI [19] of 23.7 µM. The TGI [20] was 26.4 µM, the TGI [21] was 11.1 µM and the TGI [22] was 3.14 µM. The TGI [23] was 31.6 µM, the TGI [55] was 37.9 µM and the TGI [61] was 27.8 µM. It also gave a TGI [62] of 31.9 µM, a TGI [63] of 31.7 µM and a TGI [64] of 34.4 µM. For the same compound, the TGI [25] was 4.88 µM, the TGI [26] was 37.2 µM and the TGI [27] was 16.6 µM. It also gave a TGI [28] of 41.7 µM, a TGI [29] of 8.43 µM and a TGI [65] of 43.8 µM. The TGI [56] was 28.5 µM, the TGI [30] was 27.2 µM and the TGI [31] was 29.3 µM. For the same compound, the TGI [32] was 26.8 µM, the TGI [66] was 32.9 µM and the TGI [33] was 5.34 µM. It also gave a TGI [34] of 13.8 µM, a TGI [35] of 39.5 µM and a TGI [36] of 29.9 µM. The TGI [37] was 29.6 µM, the TGI [38] was 37.9 µM and the TGI [39] was 26.1 µM. For the same compound, the TGI [40] was 27.8 µM, the TGI [41] was 37.4 µM and the TGI [42] was 36.2 µM. It also gave a TGI [43] of 32.2 µM, a TGI [44] of 30.1 µM and a TGI [46] of 53.8 µM. The TGI [47] was 9.72 µM, the TGI [67] was 46.5 µM and the TGI [48] was 41 µM. For the same compound, the TGI [49] was 35.9 µM, the TGI [50] was > 54.2 µM and the TGI [51] was 37 µM. It also gave a TGI [52] of 26.5 µM.
